In US10501437B2 (Bayer Pharma Aktiengesellschaft, priority 2016, dated 2019):

Experiment: Storage stability and micronization of crystalline material from the cubic dosing curve crystallization
Assay type: physicochemical
Conditions: crystalline material obtained from ethanol/water by cubic dosing curve crystallization

CC(C)(O)CCn1cc2cc(NC(=O)c3cccc(C(F)(F)F)n3)c(C(C)(C)O)cc2n1 [compound (I), N-[2-(3-Hydroxy-3-methylbutyl)-6-(2-hydroxypropan-2-yl)-2H-indazol-5-yl]-6-(trifluoromethyl)pyridine-2-carboxamide]
stability during storage: good stability
